Laboratory results reported in US4910195A, “Dihydropyridine derivatives” (Green Cross Corporation, priority 1986, dated 1990).

Assay: Hypotensive effect, systolic pressure by indirect tail-cuff method without anesthesia, oral administration
Format: in vivo, male rats, 10- to 11-week-old
Settings: rats, 10 mg/kg, suspended in 10% HCO-60
Experimental: An experiment was conducted to investigate the hypotensive effects of the dihydropyridine derivatives (I) and acid addition salts thereof on 10- to 11-week-old male rats (3 to 5 animals per group).
For blood pressure determination, systolic pressure was measured without anesthesia by an indirect tail-cuff method using a sphygmomanometer (PE-300, Narco Bio-System).
Each of the test compounds was suspended in 10% HCO-60 (polyoxyethylated castor oil produced by Nikko Chemicals K.K.) and administered orally to the animals in a dose of 10 mg/kg. Blood pressure measurements were conducted at predetermined time intervals.

## COC(=O)C1=C(C)NC(C)=C(C(=O)OCCN(C)Cc2ccccc2)C1c1cccc([N+](=O)[O-])c1 (centres unmarked) [nicardipine]
  50% recovery time (time required for the reduced blood pressure to return to half the maximal reduction): 3.1 h
  maximum blood pressure fall: 20%
